Experimental findings from US10308643B2, “Heterocyclic compound” (Takeda Pharmaceutical Company Limited, priority 2015, dated 2019) are described below.

Type in all cases: biochemical
The target in experiment [1] is T1, HDAC1 enzyme (Homo sapiens, UniProt Q13547).
T1 construct: transducing full length HDAC1 and HDAC6 genes into Sf-9 insect cells; GST; purchased SignalChem; host or cells: Sf-9 insect cells
In words: HDAC1/6 Enzyme Inhibitory Assay (HDAC-Glo I/II Assay kit), HDAC1. The conditions noted are these: 1 μM test compound, wells without enzyme = 100% inhibition; for inhibition at 1 µM: read-out: HDAC1 inhibitory rate (%) (1 μM). The essentials:
(§1)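 Luminescent HDAC-Glo I/II read-out was taken 20 min after adding substrate-developer, at room temperature. Before this, compound and enzyme were held together for 60 min in 24 mM Tris-HCl pH 7.5 with 0.6 mM glutathione and 0.01% Tween-20. The enzyme was full-length HDAC1 or HDAC6 from Sf-9 cells, GST-purified. Wells without enzyme defined 100% inhibition.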

The target of experiment [2] is T2, HDAC6 enzyme (Homo sapiens, UniProt Q9UBN7).
T2 construct: transducing full length HDAC1 and HDAC6 genes into Sf-9 insect cells; GST; purchased SignalChem; host or cells: Sf-9 insect cells
T2 sequence (Q9UBN7 1-1215): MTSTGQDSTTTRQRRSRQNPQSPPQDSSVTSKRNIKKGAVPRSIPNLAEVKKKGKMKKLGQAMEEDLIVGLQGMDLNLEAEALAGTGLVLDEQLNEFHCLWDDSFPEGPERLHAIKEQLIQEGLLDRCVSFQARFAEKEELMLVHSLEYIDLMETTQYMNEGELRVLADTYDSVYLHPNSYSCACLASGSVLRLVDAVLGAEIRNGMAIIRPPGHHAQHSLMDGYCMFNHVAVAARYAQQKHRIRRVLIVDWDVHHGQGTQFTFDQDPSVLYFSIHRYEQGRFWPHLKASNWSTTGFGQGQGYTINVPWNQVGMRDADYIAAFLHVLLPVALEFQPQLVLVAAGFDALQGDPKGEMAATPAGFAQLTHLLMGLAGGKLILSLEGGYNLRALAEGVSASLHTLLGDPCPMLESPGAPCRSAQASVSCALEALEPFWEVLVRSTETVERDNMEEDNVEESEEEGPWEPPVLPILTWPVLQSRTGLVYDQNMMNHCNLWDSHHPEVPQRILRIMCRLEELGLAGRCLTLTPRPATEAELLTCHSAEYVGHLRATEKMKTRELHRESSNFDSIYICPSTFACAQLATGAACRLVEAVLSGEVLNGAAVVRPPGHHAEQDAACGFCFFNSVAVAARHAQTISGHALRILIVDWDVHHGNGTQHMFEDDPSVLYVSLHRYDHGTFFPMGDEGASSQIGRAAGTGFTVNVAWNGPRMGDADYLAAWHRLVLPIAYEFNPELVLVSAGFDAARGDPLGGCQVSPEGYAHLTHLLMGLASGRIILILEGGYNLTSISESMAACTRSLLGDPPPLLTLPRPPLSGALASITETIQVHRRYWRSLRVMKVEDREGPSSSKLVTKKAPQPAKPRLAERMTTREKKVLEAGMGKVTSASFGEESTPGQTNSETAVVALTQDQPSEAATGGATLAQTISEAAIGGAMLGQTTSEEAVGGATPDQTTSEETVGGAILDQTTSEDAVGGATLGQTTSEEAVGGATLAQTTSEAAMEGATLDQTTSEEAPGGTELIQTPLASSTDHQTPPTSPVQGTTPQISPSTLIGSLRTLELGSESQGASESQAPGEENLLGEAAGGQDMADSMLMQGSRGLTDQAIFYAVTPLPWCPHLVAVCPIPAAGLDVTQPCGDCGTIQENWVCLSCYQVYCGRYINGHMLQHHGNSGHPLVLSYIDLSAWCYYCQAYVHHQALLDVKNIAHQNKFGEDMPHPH
The experiment in a line: HDAC1/6 Enzyme Inhibitory Assay (HDAC-Glo I/II Assay kit), HDAC6. Particulars: 1 μM test compound, wells without enzyme = 100% inhibition; for inhibition at 1 µM: read-out: HDAC6 inhibitory rate (%) (1 μM). The method, boiled down:
as §1

For experiment [3], the target named is T3, HDAC9 enzyme (Homo sapiens, UniProt Q9UKV0).
T3 construct: transducing full length HDAC9 gene into Sf-9 insect cells; made in house; host or cells: Sf-9 insect cells
The experiment in a line: HDAC9 Enzyme Inhibitory Assay (HDAC-Glo class IIa). Particulars: 1 μM test compound, wells without enzyme = 100% inhibition; for inhibition at 1 µM: read-out: HDAC9 inhibitory rate (%) (1 μM). The method, boiled down: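 Luminescent HDAC-Glo class IIa readout after a 20 min room-temperature reaction; relative inhibition referenced to enzyme-free wells as 100%. Test compound first preincubated 60 min with Sf-9-expressed, Ni-NTA-purified full-length HDAC9 in pH 7.5 Tris buffer containing 135 mM NaCl, 0.6 mM glutathione and 0.01% Tween-20.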

T1 sequence (Q13547 whole entry): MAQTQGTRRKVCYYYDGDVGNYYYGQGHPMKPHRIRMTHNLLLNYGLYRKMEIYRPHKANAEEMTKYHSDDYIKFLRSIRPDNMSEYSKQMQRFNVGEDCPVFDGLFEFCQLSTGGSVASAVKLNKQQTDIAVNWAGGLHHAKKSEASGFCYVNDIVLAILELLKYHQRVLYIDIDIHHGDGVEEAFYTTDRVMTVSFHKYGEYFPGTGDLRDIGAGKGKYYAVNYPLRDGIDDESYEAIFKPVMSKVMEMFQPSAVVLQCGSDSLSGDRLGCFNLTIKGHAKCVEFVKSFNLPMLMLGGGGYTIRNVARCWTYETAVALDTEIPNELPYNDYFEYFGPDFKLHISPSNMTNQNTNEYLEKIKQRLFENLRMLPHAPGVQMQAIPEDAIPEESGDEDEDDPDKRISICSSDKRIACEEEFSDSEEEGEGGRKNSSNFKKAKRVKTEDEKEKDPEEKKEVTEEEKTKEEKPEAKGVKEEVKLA
T3 sequence (Q9UKV0 whole entry, species assumed): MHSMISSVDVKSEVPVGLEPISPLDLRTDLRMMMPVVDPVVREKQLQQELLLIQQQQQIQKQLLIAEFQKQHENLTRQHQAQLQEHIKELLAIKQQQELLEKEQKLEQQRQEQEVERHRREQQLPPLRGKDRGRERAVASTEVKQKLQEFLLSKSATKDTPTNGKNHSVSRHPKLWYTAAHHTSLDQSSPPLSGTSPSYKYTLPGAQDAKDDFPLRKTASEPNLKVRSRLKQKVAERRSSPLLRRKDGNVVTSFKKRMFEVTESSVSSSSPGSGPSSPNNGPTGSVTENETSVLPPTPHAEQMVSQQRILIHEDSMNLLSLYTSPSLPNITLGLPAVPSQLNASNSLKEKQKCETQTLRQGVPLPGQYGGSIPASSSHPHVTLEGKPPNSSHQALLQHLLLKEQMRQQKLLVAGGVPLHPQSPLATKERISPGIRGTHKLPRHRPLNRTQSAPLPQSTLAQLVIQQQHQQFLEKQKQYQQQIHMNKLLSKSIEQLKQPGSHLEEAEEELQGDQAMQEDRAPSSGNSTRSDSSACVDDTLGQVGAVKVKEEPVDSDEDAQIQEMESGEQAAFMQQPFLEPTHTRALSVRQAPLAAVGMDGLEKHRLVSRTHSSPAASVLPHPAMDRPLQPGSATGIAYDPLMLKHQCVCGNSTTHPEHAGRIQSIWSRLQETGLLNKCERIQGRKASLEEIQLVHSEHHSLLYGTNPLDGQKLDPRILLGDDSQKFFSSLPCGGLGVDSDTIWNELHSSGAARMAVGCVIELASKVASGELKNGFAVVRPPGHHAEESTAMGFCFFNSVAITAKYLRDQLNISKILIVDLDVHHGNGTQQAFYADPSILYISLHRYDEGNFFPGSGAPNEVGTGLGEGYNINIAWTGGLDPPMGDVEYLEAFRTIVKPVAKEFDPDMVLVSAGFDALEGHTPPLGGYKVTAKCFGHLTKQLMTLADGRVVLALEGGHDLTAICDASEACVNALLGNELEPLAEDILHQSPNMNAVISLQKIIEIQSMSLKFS

`O=C1CCCN1[C@@H]1COCC[C@H]1N1Cc2ccc(-c3noc(C(F)(F)F)n3)cc2C1=O` [Example 177, 2-((3S,4R)-3-(2-oxopyrrolidin-1-yl)tetrahydro-2H-pyran-4-yl)-6-(5-(trifluoromethyl)-1,2,4-oxadiazol-3-yl)isoindolin-1-one]: the inhibition at 1 µM in experiment [1] amounted to 8%; in experiment [2], 98%; in experiment [3] it was 64%.

In the case of `O=C1CCCN1[C@@H]1CCOC[C@H]1N1Cc2ccc(-c3noc(C(F)(F)F)n3)cc2C1=O` [Example 178, 2-((3S,4R)-4-(2-oxopyrrolidin-1-yl)tetrahydro-2H-pyran-3-yl)-6-(5-(trifluoromethyl)-1,2,4-oxadiazol-3-yl)isoindolin-1-one], the “HDAC1 inhibitory rate (%) (1 μM)” value in experiment [1] was found to be 8%. Also, in experiment [2], the “HDAC6 inhibitory rate (%) (1 μM)” value is reported as 99%. Further, the “HDAC9 inhibitory rate (%) (1 μM)” value in experiment [3] is on record as 61%.

Take `O=C1c2cc(-c3noc(C(F)(F)F)n3)ccc2CN1[C@@H]1COCC[C@H]1O` [Example 179, 1,5-anhydro-2,4-dideoxy-2-(1-oxo-6-(5-(trifluoromethyl)-1,2,4-oxadiazol-3-yl)-1,3-dihydro-2H-isoindol-2-yl)-D-threo-pentitol]: the inhibition at 1 µM in experiment [1] was found to be 11%; in experiment [2], 90%; in experiment [3], 84%.

Take `O=C1CCCN1[C@@H]1COCC[C@H]1N1Cc2ccc(-c3noc(C(F)(F)F)n3)cc2C1=O` [Example 180, 2-((3S,4R)-3-(2-oxopyrrolidin-1-yl)tetrahydro-2H-pyran-4-yl)-6-(5-(trifluoromethyl)-1,2,4-oxadiazol-3-yl)isoindolin-1-one]: the “HDAC1 inhibitory rate (%) (1 μM)” value in experiment [1] was 13%. The “HDAC6 inhibitory rate (%) (1 μM)” value in experiment [2] is recorded as 99%. Further, the “HDAC9 inhibitory rate (%) (1 μM)” value in experiment [3] amounted to 72%.

Turning to `O=C1CCCN1[C@H]1COCC[C@@H]1N1Cc2ccc(-c3noc(C(F)(F)F)n3)cc2C1=O` [Example 181, 2-((3R,4S)-3-(2-oxopyrrolidin-1-yl)tetrahydro-2H-pyran-4-yl)-6-(5-(trifluoromethyl)-1,2,4-oxadiazol-3-yl)isoindolin-1-one], the inhibition at 1 µM was 2% in experiment [1], 74% in experiment [2] and 41% in experiment [3].

Regarding `O=C1CCCN1[C@@H]1CCOC[C@H]1N1Cc2ccc(-c3noc(C(F)(F)F)n3)cc2C1=O` [Example 182, 2-((3S,4R)-4-(2-oxopyrrolidin-1-yl)tetrahydro-2H-pyran-3-yl)-6-(5-(trifluoromethyl)-1,2,4-oxadiazol-3-yl)isoindolin-1-one], in experiment [1], the “HDAC1 inhibitory rate (%) (1 μM)” value stood at 10%. For the same compound, the “HDAC6 inhibitory rate (%) (1 μM)” value in experiment [2] is on record as 98%. The “HDAC9 inhibitory rate (%) (1 μM)” value in experiment [3] is 71%.

Regarding `O=C1CCCN1[C@@H]1CCOC[C@H]1N1Cc2ccc(-c3noc(C(F)(F)F)n3)cc2C1=O` [Example 183, 2-((3S,4R)-4-(2-oxopyrrolidin-1-yl)tetrahydro-2H-pyran-3-yl)-6-(5-(trifluoromethyl)-1,2,4-oxadiazol-3-yl)isoindolin-1-one], the “HDAC1 inhibitory rate (%) (1 μM)” value in experiment [1] was 1%. The “HDAC6 inhibitory rate (%) (1 μM)” value in experiment [2] is 77%. The “HDAC9 inhibitory rate (%) (1 μM)” value in experiment [3] is on record as 47%.

On to `O=C1CCCN1c1ccccc1N1Cc2ccc(-c3noc(C(F)(F)F)n3)cc2C1=O` [Example 184, 2-(2-(2-oxopyrrolidin-1-yl)phenyl)-6-(5-(trifluoromethyl)-1,2,4-oxadiazol-3-yl)isoindolin-1-one], for which the inhibition at 1 µM in experiment [1] was determined as 7%; in experiment [2] it was 98%; in experiment [3] it was 56%.

Turning to `O=C1CCCN1c1cccc(Cl)c1N1Cc2ccc(-c3noc(C(F)(F)F)n3)cc2C1=O` [Example 185, 2-(2-chloro-6-(2-oxopyrrolidin-1-yl)phenyl)-6-(5-(trifluoromethyl)-1,2,4-oxadiazol-3-yl)isoindolin-1-one], the inhibition at 1 µM in experiment [1] is 5%; in experiment [2], 97%; in experiment [3], 41%.
